Measured values taken from patent publication US9783552B2, “Soluble guanylate cyclase activators” (MERCK SHARP & DOHME CORP., priority 2013, dated 2017).
pEC50: −log10 of the molar value.

What was measured:
sGC α1/β1 heterodimer = molecular target: T1, sGC α1/β1 heterodimer (Homo sapiens, UniProt Q02108+Q02153); assay: Cell-Based sGC Functional Assay (CASA Assay); conditions: CHO-K1/sGC cells; for pEC50: intracellular cGMP by HTRF, 1 hr at 37° C., IP from 4P fit, presence or absence of 1 μM DETA-NO not given; for Emax: cGMP as percentage of maximum cGMP production of Compound A (=100% activation), read-out: % ACT (percent activation)
T1 construct: expressed in transfected cells
T1 sequence (Q02108 1-690): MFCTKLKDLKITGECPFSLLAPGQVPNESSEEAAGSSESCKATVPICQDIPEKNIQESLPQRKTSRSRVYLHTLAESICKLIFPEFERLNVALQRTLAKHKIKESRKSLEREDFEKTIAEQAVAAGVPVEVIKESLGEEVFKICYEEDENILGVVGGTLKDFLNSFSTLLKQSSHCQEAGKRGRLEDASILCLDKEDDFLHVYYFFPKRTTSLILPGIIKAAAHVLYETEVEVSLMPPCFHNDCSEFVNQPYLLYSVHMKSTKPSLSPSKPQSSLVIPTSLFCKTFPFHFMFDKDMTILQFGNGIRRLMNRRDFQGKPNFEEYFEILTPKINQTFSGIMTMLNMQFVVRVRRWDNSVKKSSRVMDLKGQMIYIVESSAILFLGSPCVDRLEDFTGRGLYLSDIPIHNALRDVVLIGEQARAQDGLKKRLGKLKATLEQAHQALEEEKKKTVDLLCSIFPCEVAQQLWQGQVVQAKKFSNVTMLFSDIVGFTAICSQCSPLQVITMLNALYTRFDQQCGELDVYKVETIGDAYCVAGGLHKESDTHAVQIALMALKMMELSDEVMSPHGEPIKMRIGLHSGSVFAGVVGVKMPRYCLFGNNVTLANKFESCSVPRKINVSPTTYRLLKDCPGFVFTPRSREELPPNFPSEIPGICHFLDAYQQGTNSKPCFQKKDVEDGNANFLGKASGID
T1 sequence (Q02153 1-619): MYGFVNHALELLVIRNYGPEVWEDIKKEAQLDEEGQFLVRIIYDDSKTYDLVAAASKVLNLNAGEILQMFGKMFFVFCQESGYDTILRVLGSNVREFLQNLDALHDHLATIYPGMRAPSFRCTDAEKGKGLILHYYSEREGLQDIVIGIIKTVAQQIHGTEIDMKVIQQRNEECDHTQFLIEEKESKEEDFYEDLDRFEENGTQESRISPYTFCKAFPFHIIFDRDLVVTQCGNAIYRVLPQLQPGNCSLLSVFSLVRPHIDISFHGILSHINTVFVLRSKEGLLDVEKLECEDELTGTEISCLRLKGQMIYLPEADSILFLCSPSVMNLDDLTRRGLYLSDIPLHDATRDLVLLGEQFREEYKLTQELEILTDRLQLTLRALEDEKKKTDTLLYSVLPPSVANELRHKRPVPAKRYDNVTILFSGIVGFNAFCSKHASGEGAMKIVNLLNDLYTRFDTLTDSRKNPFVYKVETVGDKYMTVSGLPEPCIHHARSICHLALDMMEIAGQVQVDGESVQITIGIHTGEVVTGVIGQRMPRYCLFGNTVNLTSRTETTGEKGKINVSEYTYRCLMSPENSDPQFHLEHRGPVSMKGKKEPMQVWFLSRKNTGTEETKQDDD
Method in brief: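 CHO-K1 cells stably expressing human sGC α1/β1 were incubated with compound (2.5% DMSO) for 1 hr at 37 °C with 0.5 mM IBMX, with or without 1 μM DETA-NO. Intracellular cGMP was measured by HTRF and expressed as % of the maximal cGMP produced by a reference sGC heme-dependent activator. IP and maximum fold induction came from a 4-parameter fit.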

[1] = tested on: Spontaneously hypertensive rats (SHR); assay: Acute Efficacy in Spontaneously Hypertensive Rats (SHR); type: in vivo, rat; conditions: single oral gavage
Text: Acute Efficacy in Spontaneously Hypertensive Rats (SHR)
Spontaneously hypertensive rats (SHR, male, Charles River) were implanted with DSI TA 11PA-C40 telemetry device (Data Sciences, Inc., St. Paul, Minn.) under isoflurane or ketamine/metomidine anesthesia. The telemetry unit catheter was inserted into the descending aorta via the femoral artery and the telemetry device was implanted subcutaneously in the left flank area. Animals were allowed to recover from surgery for 14 days before the start of any studies. Blood pressure, heart rate, and activity signals from conscious, freely moving rats were recorded continuously for 30 seconds every 10 min. On the day prior to administration of compound, a single oral dose of vehicle (10% transcutol/20% Cremophor/70% water) was administered to all animals to establish baseline control data. The blood pressure lowering efficacy of compound (PO) or vehicle was evaluated following a single oral gavage. Data were collected as hourly averages, and changes in blood pressure were calculated by subtracting control baseline data on an hourly basis. Animals were maintained on normal diet with a 12 h light-dark cycle.
Maximum peak decreases of systolic blood pressure (SBP) in SHR at a particular P.O. dose (mpk milligrams per kilogram) for the following Example compounds are provided. Category A=SBP in SHRs<25 mmHg; Category B=SBP in SHRs 25-40 mmHg; Category C=SBP in SHRs>40 mmHg.

SMILES | pEC50 (sGC α1/β1 heterodimer) | Emax (sGC α1/β1 heterodimer) | Maximum peak decrease of systolic blood pressure (SBP) in SHR, Category ([1]; Dose 1 mpk P.O.) | Maximum peak decrease of systolic blood pressure (SBP) in SHR, Category ([1]; Dose 3 mpk P.O.) | Maximum peak decrease of systolic blood pressure (SBP) in SHR, Category ([1]; Dose 0.3 mpk P.O.)
Cn1ncc2c(-c3nc(N)c4c(n3)NC(=O)C4(C)c3ccccc3)nc(CCC(F)(F)C(F)(F)F)nc21 (single isomer, unassigned) [Example 1, 4-Amino-5-methyl-2-(1-methyl-6-(3,3,4,4,4-pentafluorobutyl)-1H-pyrazolo[3,4-d]pyrimidin-4-yl)-5-phenyl-5H-pyrrolo[2,3-d]pyrimidin-6(7H)-one] | 7.40 | 101% | C (Category C=SBP in SHRs>40 mmHg) |  | 
[2H]C([2H])([2H])n1ncc2c(-c3nc(N)c4c(n3)NC(=O)C4(C)c3ccc(F)cc3)nc(CCC(F)(F)C(F)(F)F)nc21 (single isomer, unassigned) [Example 2, 4-Amino-5-(4-fluorophenyl)-5-methyl-2-(6-(3,3,4,4,4-pentafluorobutyl)-1-trideuteriomethyl-1H-pyrazolo[3,4-d]pyrimidin-4-yl)-5H-pyrrolo[2,3-d]pyrimidin-6(7H)-one] | 7.49 | 97% | C (Category C=SBP in SHRs>40 mmHg) |  | 
Cn1ncc2c(-c3nc(N)c4c(n3)NC(=O)C4(C)c3ccccc3)nc(CCC(F)(F)F)nc21 (single isomer, unassigned) [Example 4, 4-Amino-5-methyl-2-(1-methyl-6-(3,3,3-trifluoropropyl)-1H-pyrazolo[3,4-d]pyrimidin-4-yl)-5-phenyl-5H-pyrrolo[2,3-d]pyrimidin-6(7H)-one] | 6.89 | 108% |  | C (Category C=SBP in SHRs>40 mmHg) | 
Cn1ncc2c(-c3nc(N)c4c(n3)NC(=O)C4(C)c3ccc(F)cc3)nc(Cc3cccc(F)c3F)nc21 (single isomer, unassigned) [Example 6, 4-Amino-2-(6-(2,3-difluorobenzyl)-1-methyl-1H-pyrazolo[3,4-d]pyrimidin-4-yl)-5-(4-fluorophenyl)-5-methyl-5H-pyrrolo[2,3-d]pyrimidin-6(7H)-one] | 6.80 | 127% |  | A (Category A=SBP in SHRs<25 mmHg) | 
CCn1ncc2c(-c3nc(N)c4c(n3)NC(=O)C4(C)c3ccccc3)nc(CCC(F)(F)C(F)(F)F)nc21 (single isomer, unassigned) [Example 7, 4-Amino-2-(1-ethyl-6-(3,3,4,4,4-pentafluorobutyl)-1H-pyrazolo[3,4-d]pyrimidin-4-yl)-5-methyl-5-phenyl-5H-pyrrolo[2,3-d]pyrimidin-6(7H)-one] | 7.07 | 110% |  | B (Category B=SBP in SHRs 25-40 mmHg) | 
Cn1ncc2c(-c3nc(N)c4c(n3)NC(=O)C4(C)c3ccc(F)cc3)nc(CCC(F)(F)C(F)(F)F)nc21 (single isomer, unassigned) [Example 9, 4-Amino-5-(4-fluorophenyl)-5-methyl-2-(1-methyl-6-(3,3,4,4,4-pentafluorobutyl)-1H-pyrazolo[3,4-d]pyrimidin-4-yl)-5H-pyrrolo[2,3-d]pyrimidin-6(7H)-one] | 7.34 | 110% | C (Category C=SBP in SHRs>40 mmHg) |  | 
[2H]C([2H])([2H])n1ncc2c(-c3nc(N)c4c(n3)NC(=O)C4(C(=O)NC3CC3)C3CC3)nc(CCC(F)(F)C(F)(F)F)nc21 (single isomer, unassigned) [Example 28, 4-Amino-N,5-dicyclopropyl-2-(6-(3,3,4,4,4-pentafluorobutyl)-1-trideuteriomethyl-1H-pyrazolo[3,4-d]pyrimidin-4-yl)-6-oxo-6,7-dihydro-5H-pyrrolo[2,3-d]pyrimidine-5-carboxamide] | 7.28 | 112% | C (Category C=SBP in SHRs>40 mmHg) |  | 
Cn1ncc2c(-c3nc(N)c4c(n3)NC(=O)C4(C)C(=O)NC3CC3)nc(CCC(F)(F)C(F)(F)F)nc21 (single isomer, unassigned) [Example 31, 4-Amino-N-cyclopropyl-5-methyl-2-(1-methyl-6-(3,3,4,4,4-pentafluorobutyl)-1H-pyrazolo[3,4-d]pyrimidin-4-yl)-6-oxo-6,7-dihydro-5H-pyrrolo[2,3-d]pyrimidine-5-carboxamide] | 6.72 | 132% |  |  | B (Category B=SBP in SHRs 25-40 mmHg)
[2H]C([2H])([2H])n1ncc2c(-c3nc(N)c4c(n3)NC(=O)C4(C)C(=O)NC3CC3)nc(CCC(F)(F)C(F)(F)F)nc21 (single isomer, unassigned) [Example 32, 4-Amino-N-cyclopropyl-5-methyl-2-(6-(3,3,4,4,4-pentafluorobutyl)-1-trideuteriomethyl-1H-pyrazolo[3,4-d]pyrimidin-4-yl)-6-oxo-6,7-dihydro-5H-pyrrolo[2,3-d]pyrimidine-5-carboxamide] | 7.28 | 131% | A (Category A=SBP in SHRs<25 mmHg) |  | 
Cn1ccc2c(-c3nc(N)c4c(n3)NC(=O)C4(C)c3ccc(F)cc3)nc(CCC(F)(F)C(F)(F)F)nc21 (single isomer, unassigned) [Example 61, 4-Amino-5-(4-fluorophenyl)-5,7′-dimethyl-2′-(3,3,4,4,4-pentafluorobutyl)-5H,7′H-[2,4′-bipyrrolo[2,3-d]pyrimidin]-6(7H)-one] | 7.21 | 91% | A (Category A=SBP in SHRs<25 mmHg) |  | 
Cn1ccc2c(-c3nc(N)c4c(n3)NC(=O)C4(C)c3ccccc3)nc(CCC(F)(F)C(F)(F)F)nc21 (single isomer, unassigned) [Example 62, 4-Amino-5,7′-dimethyl-2′-(3,3,4,4,4-pentafluorobutyl)-5-phenyl-5H,7′H-[2,4′-bipyrrolo[2,3-d]pyrimidin]-6(7H)-one] | 7.72 | 92% | A (Category A=SBP in SHRs<25 mmHg) |  | 
[2H]C([2H])([2H])n1nnc2c(-c3nc(N)c4c(n3)NC(=O)C4(C)c3ccc(F)cc3)nc(CCC(F)(F)C(F)(F)F)nc21 (single isomer, unassigned) [Example 67, 4-Amino-5-(4-fluorophenyl)-5-methyl-2-(5-(3,3,4,4,4-pentafluorobutyl-3-trideuteriomethyl)-3H-[1,2,3]triazolo[4,5-d]pyrimidin-7-yl)-5H-pyrrolo[2,3-d]pyrimidin-6(7H)-one] | 5.97 | 114% | A (Category A=SBP in SHRs<25 mmHg) |  | 
